Experiments:
[1] = target: T1, human TRPV1 heterologously expressed in Chinese hamster ovary (CHO) cells (Homo sapiens, UniProt Q8NER1); assay: binding competition assay with [3H]-resiniferatoxin; conditions: for fold weaker binding affinity compared to 1: ratio of Ki versus compound 1
[2] = target: T1, human TRPV1 heterologously expressed in Chinese hamster ovary (CHO) cells; format: cell-based; conditions: for fold weaker antagonistic potency compared to 1: ratio of Ki(ant) versus compound 1

T1 sequence (Q8NER1 whole entry): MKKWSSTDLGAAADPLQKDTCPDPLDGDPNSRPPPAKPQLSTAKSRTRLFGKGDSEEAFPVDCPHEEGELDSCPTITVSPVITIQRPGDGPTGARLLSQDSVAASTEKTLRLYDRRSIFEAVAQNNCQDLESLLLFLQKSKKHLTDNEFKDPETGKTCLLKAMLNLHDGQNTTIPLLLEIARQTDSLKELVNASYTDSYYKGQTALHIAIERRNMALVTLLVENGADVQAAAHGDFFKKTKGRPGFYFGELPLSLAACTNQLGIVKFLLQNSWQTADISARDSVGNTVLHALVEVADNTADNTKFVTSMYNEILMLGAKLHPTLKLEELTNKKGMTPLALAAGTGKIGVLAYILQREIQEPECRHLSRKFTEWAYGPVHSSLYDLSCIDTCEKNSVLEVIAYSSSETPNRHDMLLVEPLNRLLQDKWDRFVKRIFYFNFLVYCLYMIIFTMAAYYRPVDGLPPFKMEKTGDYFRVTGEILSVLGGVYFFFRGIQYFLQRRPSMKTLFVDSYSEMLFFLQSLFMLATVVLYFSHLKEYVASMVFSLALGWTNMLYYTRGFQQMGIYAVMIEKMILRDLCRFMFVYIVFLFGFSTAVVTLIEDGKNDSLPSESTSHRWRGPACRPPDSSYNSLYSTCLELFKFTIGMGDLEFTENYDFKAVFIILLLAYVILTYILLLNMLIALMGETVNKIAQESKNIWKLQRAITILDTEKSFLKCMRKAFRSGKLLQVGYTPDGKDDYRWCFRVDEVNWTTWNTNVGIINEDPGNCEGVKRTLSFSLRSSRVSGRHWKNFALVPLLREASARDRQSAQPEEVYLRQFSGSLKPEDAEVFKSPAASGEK

SMILES | fold weaker binding affinity compared to 1 [1] | fold weaker antagonistic potency compared to 1 [2] | further results
CC1CCN(c2nc(C(F)(F)F)ccc2CNC(=O)Nc2ccc(NS(C)(=O)=O)c(F)c2)CC1 [Compound 21] | 11 fold | 67 fold | –
CC1CCN(c2nc(C(F)(F)F)ccc2CCNC(=O)C(C)c2ccc(NS(C)(=O)=O)c(F)c2)CC1 (stereo not shown) [Compound 11] | 7 fold | 43 fold | –
CC1CCN(c2nc(C(F)(F)F)ccc2CNC(=O)Nc2ccc(CNS(C)(=O)=O)c(F)c2)CC1 [Compound 27] | – | – | fold increase in binding affinity compared to 21 ([1]; ratio of Ki versus compound 21): approximately 12 fold; fold increase in antagonistic potency compared to 21 ([2]; ratio of Ki(ant) versus compound 21): approximately 12 fold
Cc1cccc(N(C(=O)NCc2ccc(C(F)(F)F)nc2N2CCC(C)CC2)c2ccc(NS(C)(=O)=O)c(F)c2)c1 [Compound 42] | – | – | extent of antagonism, 15 min pre-incubation ([2]; cells incubated with compound 15 min before challenge with capsaicin): full antagonism
CC1CCN(c2nc(C(F)(F)F)ccc2CCNC(=O)Nc2ccc(NS(C)(=O)=O)c(F)c2)CC1 [Compound 22] | – | – | character of antagonism ([2]; capsaicin stimulated 45Ca2+ uptake): partial antagonist
CC1CCN(c2nc(C(F)(F)F)ccc2CNC(=O)C(C)c2ccc(CNS(C)(=O)=O)c(F)c2)CC1 (stereo not shown) [Compound 16] | 29 fold | 12 fold | –

— PMC6957248 (Bioorganic & medicinal chemistry letters, 2016)
